Values quoted from earlier work as cited in patent US20250127701A1, “Cosmetical use of a topically applicable rinse-of composition (RC)” (Wella Germany GmbH, priority 2023, published 2025).

Legend:
[1] = molecular target: T1, olfactory receptor OR2AT4 (Homo sapiens, UniProt A6NND4); conditions: receptor expressed in the epithelium of human hair follicles
T1 sequence (A6NND4 1-320): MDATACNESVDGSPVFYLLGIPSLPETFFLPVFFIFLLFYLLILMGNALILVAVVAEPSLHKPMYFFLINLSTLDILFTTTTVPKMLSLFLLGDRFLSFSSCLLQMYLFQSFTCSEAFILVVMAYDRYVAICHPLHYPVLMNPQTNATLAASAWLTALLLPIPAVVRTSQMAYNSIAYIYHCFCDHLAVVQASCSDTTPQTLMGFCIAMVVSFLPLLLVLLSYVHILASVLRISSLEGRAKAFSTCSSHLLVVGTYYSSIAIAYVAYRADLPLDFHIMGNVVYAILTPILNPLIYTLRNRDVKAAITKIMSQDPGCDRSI

[2] = test system: hair shaft, hair matrix keratinocytes; conditions: studies have shown

| Effect on the olfactory receptor OR2AT4 [1] | SMILES | Effect on anagen duration [2] | Effect on hair shaft elongation [2] | Effect on proliferation of hair matrix keratinocytes [2] |
| --- | --- | --- | --- | --- |
| stimulatory effect | CC1=CCC(CCC(C)C(C)O)C1(C)C (stereo not shown) [Sandal pentanol, 3-methyl-5-(2,2,3-trimethylcyclopent-3-en-1-yl)pentan-2-ol] | – | – | – |
| – | Cn1c(=O)c2c(ncn2C)n(C)c1=O [caffeine, 1,3,7-trimethylxanthine] | prolonges anagen duration | enhances the hair shaft elongation | stimulates the proliferation of hair matrix keratinocytes |
